A short description of data set [1]: Recovery of steroid glycoside and free steroid from intestinal contents and tissues after intragastric administration. The data set is classed as in vivo, Sprague-Dawley rats. The following applies: for Recovery from the cecum / Recovery from the small intestine: average of 4 animals; for animals in which the administered dose reached the cecum by the time of sacrifice: sixteen rats per glucoside, sacrifice at 3-6 h. The procedure:
Male, Sprague-Dawley rats (ca 250 g) were maintained on laboratory rat chow and water ad lib. These rats were fasted overnight (16 hr.) prior to administration of glucoside or free steroid. Water bottles were removed from the cages at least 30 min prior to drug administration. Prednisolone glucoside, 2, (7.5 mg) or dexamethasone glucoside, 1, (7.5 mg) was administered by gastric intubation as a solution (0.5 mL) of water/95% ethanol (3:1). Prednisolone, 4, (5.25 mg) or dexamethasone, 3, (5.1 mg) was administered as a solution (0.5 mL) of water/95% ethanol (1:1). After the appropriate interval of time -3, 4, 5 or 6 hr.- the animals were sacrificed by carbon dioxide anesthesia followed by thoractomy. The small intestine and cecum were removed and cut into segments. Contents were separated from the tissues by rinsing the segments with cold, 0.9% saline (5.0 mL). The contents were immediately diluted to 30 mL with methanol. The tissues were suspended in 0.01 M KH2P04 (5.0 mL). Then an internal standard, either prednisolone, 4, or dexamethasone, 3, depending on the experimental steroid, was added to all the samples. Both the contents and tissues were then homogenized with a Polytron Homogenizer (Brinkman Inst. Co.) at med. speed for 1-2 min. The contents were then diluted to 40 mL total volume with methanol. The tissues were diluted to 25 mL total volume with methanol. All the samples were centrifuged (5,000 g, 15 min) and then the supernatant solutions were passed through membrane filters (0.45 micrometers, Versapor 800). The samples (1.4 mL) were then diluted with 0.01 M KH2PO4 (0.6 mL) and 20 microliters of the resulting solution injected directly onto the HPLC column for analysis.

The nature of data set [2]: KM(app) and Vmax determinations (Eadie-Hofstee plots). The following applies: prodrug 0.5-48 micromolar, 0.8 mL cecal homogenate, 15 min, 37 C, release of free steroid by HPLC. It is filed as in vitro ADME, rat. The protocol:
KM(app) and VMax Determinations. The KM(app)-Vmax for the hydrolysis of p-NP-glc and p-NP-gal were determined using pooled cecal homogenates (200 mL) as described above. A range of substrate (56-1000 micromolar; final volume 2.25 mL) concentrations, spanning their apparent KM, was used for each reaction. The amount of cecal homogenate used was 0.04 mL. Velocities were obtained, in duplicate, at 37 °C in a shaking water bath and the reaction stopped by addition of 0.2 N NaOH (0.25 mL) after 15 min. Release of p-nitrophenol was measured spectrophotometrically at 403 nm. Eadie-Hofstee plots were used to determine the KM(app) (micromolar) and Vmax (micromolar/min/g) of both reactions. The wet weight (g), measured immediately after removal and pooling, was used throughout.
Again, cecal contents from four rats were pooled, weighed, diluted (100 mL, 0.01 M phosphate buffer, pH 7.0) and homogenized. A range of substrate concentrations (0.5-48 micromolar, final volume 2.5 mL) spanning the apparent KM, was used for each reaction. The amount of cecal homogenate used was 0.8 mL. Reactions were run, in duplicate, at 37°C in a shaking water bath. After 15 min, the reactions were stopped by removing aliquots (0.3 mL) and quenching them with MeOH (4.7 mL). […] Again, Eadie-Hofstee plots were used to determine the KM(app) and VMax.

The nature of data set [3]: Incubation with homogenized rat feces. The data set is classed as in vitro ADME. The protocol:
Glucosides 1 and 2 (5.0 mg) were also incubated at 37 °C with homogenized rat feces (0.5 g/10 milliliters 0.01 M phosphate buffer, pH 7.5). The feces were obtained from rats maintained on a high cellulose diet. […] Aliquots (0.2 milliliters) were removed and quenched with MeOH (3.66 milliliters). After centrifugation (5,000g, 10 min), the samples were passed through membrane filters (0.45 micrometer pore, Versapor 450, Gelman Sciences, Inc.). They were then diluted (1:1) with 0.01 M KH2PO4. Twenty microliters of the resulting solution were injected directly onto the HPLC column for analysis.

Data set [4] in a line: Rate of hydrolysis in homogenized proximal small intestine contents. The following applies: PSI contents; 1.0 mM prodrug, 37 C; release of free steroid by HPLC.
A short description of data set [5]: Rate of hydrolysis in homogenized stomach contents. The conditions noted are these: 1.0 mM prodrug, 37 C, release of free steroid by HPLC.
Data set [6] in a line: Rate of hydrolysis in homogenized distal small intestine contents. The following applies: for Sp. act. / Tot. act.: DSI contents, 1.0 mM prodrug, 37 C, release of free steroid by HPLC; for hydrolysis by DSI contents, comparison in words: homogenates of DSI contents.
Text: (§1) (The entire small intestine was divided into two, equal length segments to give PSI and DSI.) Gastrointestinal contents were obtained from male, Sprague-Dawley rats (300-400 g) which had been maintained on a stock diet (Purina rat chow) and water ad libitum. The intestinal contents of each section were pooled from four animals for each assay. […] Following removal, the contents were quickly weighed, then diluted to 100 milliliters (stomach, PSI, and DSI) or 200 milliliters (cecum) with cold 0.01 M phosphate buffer, pH 7.0. […] Homogenates were then stored on ice (ca 30 min). […] The reaction was run at 37 °C in a shaking water bath. The reaction was stopped after 10, 20, or 30 min by addition of 0.2 N NaOH (0.25 milliliters).
(§2) Stomach and PSI contents were diluted to 50 mL with 0.01 M phosphate buffer, pH 7.0, DSI contents to 25 mL, and cecal contents to 200 mL, prior to homogenization. The homogenates (2.1 mL of stomach, PSI, and DSI and 1.7 mL of cecum) were added to the appropriate substrate solution (0.01 M phosphate buffer, pH 7.0) to give 1.0 mM substrate in a total volume of 2.5 mL. At various times up to 30 min, aliquots (0.3 mL) were removed and quenched with MeOH (4.7 mL). After centrifugation (5,000 g, 10 min), the samples were diluted (1:1) with 0.01 M KH2PO4 and 20 microliters of the resulting solution was injected directly onto the HPLC column for analysis.
A short description of data set [7]: Rate of hydrolysis in homogenized cecal contents. The conditions noted are these: cecal contents; 1.0 mM prodrug, 37 C; release of free steroid by HPLC.
Text: as §1, §2
For data set [8], the system named is beta-glucosidase (EC 3.2.1.21, from almonds). Description: Hydrolysis by commercial beta-glucosidase. It is filed as biochemical. The following applies: 37 C, acetate buffer pH 5.0. The procedure:
Prednisolone glucoside, 2, (5.0 mg) or dexamethasone glucoside, 1, (5.0 mg) was incubated at 37 °C in an […] acetate buffer, pH 5.0 (10.0 mL) with beta-glucosidase (EC 3.2.1.21, from almonds, one unit liberates 1.0 micromole of glucose from salicin per min at pH 5.0 at 370C). Prednisolone glucoside, 2, and dexamethasone glucoside, 1, were treated with 50 and 500 units of enzyme, respectively. At various times, aliquots (0.1 mL) were removed and quenched with methanol (9.9 mL).

[9] abbreviates: 4 h after administration of 7.5 mg of glucoside 1.
[10] abbreviates: 5 h after administration of 7.5 mg of glucoside 1.
Setting [11] is: 6 h after administration of 7.5 mg of glucoside 1.
[12] abbreviates: in vivo, po, rat, 7.5 mg glucoside intragastric, estimated from unhydrolyzed glucoside in lower small intestine at 4 h, read-out: part of an oral dose of glucoside that reached (was delivered to) the cecum.
Where [13] appears, read: rat, in vivo, po, 7.5 mg, 4 h after 7.5 mg glucoside, rat, read-out: administered dose recovered from the lower small intestine contents unhydrolyzed.

Molecules are shown by their SMILES. Read-outs that look alike come from different tables or passages of the source.

What is called Km is the concentration of substrate that gives half-maximal velocity. For orientation: Vmax means the rate approached at saturating substrate.

As to `CC1CC2C3CCC4=CC(=O)C=CC4(C)C3(F)C(O)CC2(C)C1(O)C(=O)COC1OC(CO)C(O)C(O)C1O` [Compound 1, 9 alpha-Fluoro-11 beta, 17 alpha-dihydroxy-16 alpha-methyl-3, 20-dioxopregna-l, 4-dien-21-yl beta-D-glucopyranoside], the “Recovery from the cecum” value worked out at 0.21 mg in data set [1] (3 h after administration of 7.5 mg of glucoside 1), 0.02 mg in data set [1] (setting [9]), 0.23 mg in data set [1] (setting [10]) and 0.04 mg in data set [1] (setting [11]). Further, the “Recovery from the small intestine” value in data set [1] (3 h after intragastric administration of 7.5 mg of glucoside 1) is 5.61 mg^a; in data set [1] (setting [9]), 5.00 mg; in data set [1] (setting [10]), 0.24 mg; in data set [1] (setting [11]), 0.94 mg. In addition, the recovery at 4 h in data set [1] (setting [12]) was about 60%; in data set [1] (setting [13]) it was 59%. Further, the “time to reach the colon” value in data set [1] (intragastric administration to rats) is 4 to 5 h. In data set [1] (rat, 7.5 mg glucoside intragastric, estimated from unhydrolyzed glucoside in lower small intestine at 4 h, listed as glucoside 1), the “part of an oral dose of glucoside that reached (was delivered to) the cecum” value is “about half of the dose”. Also, in data set [1] (rat, in vivo, po, 3 h after oral administration, rat, read-out: dose recovered (intact) from the intestinal lumen), the recovery at 3 h came to 78%. In addition, the “animals in which the administered dose reached the cecum by the time of sacrifice” value in data set [1] is listed as “eleven of the sixteen animals”. Also, the Km in data set [2] (listed as glucoside 1) was determined as 2.5 µM. Also, the Vmax in data set [2] (listed as glucoside 1) was 2.2 µM/min/g. Also, the “hydrolysis on incubation with homogenized rat feces” value in data set [3] (37 C, 0.01 M phosphate buffer pH 7.5) is reported as “extensive hydrolysis”. Moreover, the Sp. act. in data set [4] worked out at 11.0 nmoles/min/g wet weight; in data set [5], 6.8 nmoles/min/g wet weight; in data set [6], 19.3 nmoles/min/g wet weight; in data set [6] (listed as glucoside 1), 19 nmoles/min/g wet weight; in data set [7] it was 141 nmoles/min/g wet weight. Further, the Tot. act. in data set [4] was determined as 0.07 µmol/min; in data set [5] it was 0.12 µmol/min; in data set [6], 0.34 µmol/min; in data set [7] it was 3.5 µmol/min. For the same compound, the figures for the “hydrolysis by DSI contents, comparison in words” value in data set [6] and in data set [6] (listed as glucoside 1) were “more resistant to hydrolysis than the other prodrugs” and “about three times slower”, respectively.

In the case of `CC12C=CC(=O)C=C1CCC1C2C(O)CC2(C)C1CCC2(O)C(=O)COC1OC(CO)C(O)C(O)C1O` [Compound 2, 11 beta, 17 alpha-Dihydroxy-3, 20-dioxopregna-l, 4-dien-21-yl beta-D-glucopyranoside], the values for the recovery at 4 h in data set [1] (setting [12]) and in data set [1] (setting [13]) were under 15% and 14.8%, respectively. The “time to reach the colon” value in data set [1] (rat, in vivo) lay within 4 to 5 h. In addition, in data set [1], the “animals in which the administered dose reached the cecum by the time of sacrifice” value is on record as “eight of sixteen animals”. Moreover, the Km in data set [2] (listed as glucoside 2) came out at 4.5 µM. Further, the Vmax in data set [2] (listed as glucoside 2) stood at 2.6 µM/min/g. Further, the “hydrolysis on incubation with homogenized rat feces” value in data set [3] (pH 7.5) was “extensive hydrolysis”. The Sp. act. in data set [4] worked out at 12.2 nmoles/min/g wet weight; in data set [5], 6.8 nmoles/min/g wet weight; in data set [6], 56.8 nmoles/min/g wet weight; in data set [7] it was 265 nmoles/min/g wet weight. Besides, the Tot. act. in data set [4] was 0.07 µmol/min; in data set [5] it was 0.12 µmol/min; in data set [6], 1.0 µmol/min; in data set [7] it was 6.6 µmol/min. The “relative rate of hydrolysis by commercial beta-glucosidase” value is “several orders of magnitude faster than was glucoside 1” in data set [8] (listed as Glucoside 2) and “much more active towards glucoside 2 than towards glucoside 1” in data set [8] (listed as glucoside 2).
